# Measurements reported in patent US20260271931A1, “HERBICIDAL MIXTURES” (Bayer Aktiengesellschaft, priority 2023, published 2026).
# Like-named read-outs stand apart in the source and are kept apart here.
# Assays:
# Assay type in all cases: in vivo
# Avena fatua (AVEFA) = experiment: Post-emergence action against weeds, greenhouse pot test, visual rating: Avena fatua; details: for pest or weed control at […]: Avena fatua, 240 h, 10 DAT, read-out: Herbicidal effect [%] on AVEFA 10 DAT
# Lolium rigidum (LOLRI) = experiment: Post-emergence action against weeds, greenhouse pot test, visual rating: Lolium rigidum; details: for pest or weed control at 0.4 g/ha / pest or weed control at […]: Lolium rigidum, 504 h, 21 DAT, read-out: Herbicidal effect [%] on LOLRI 21 DAT
# Eleusine indica (ELEIN) = experiment: Post-emergence action against weeds, greenhouse pot test, visual rating: Eleusine indica; details: for pest or weed control at 0.4 g/ha / pest or weed control at […]: Eleusine indica, post-emergence
# Description: (§1) When the observed efficacies already exceed the formal sum total of the values of the tests with individual applications, they also exceed the expected value according to Colby, which is calculated using the formula below and is likewise regarded as an indication of synergism (cf. S. R. Colby; in Weeds 15 (1967) pp. 20 to 22):
# (§2) where: • A=efficacy of the active ingredient (A) in % at an application rate of a [g a.i./ha]; • B=efficacy of the active ingredient (B) in % at an application rate of b [g a.i./ha]; • E^C=expected value of the effect of the combination (A)+(B) in % at the combined application rate a+b [g a.i./ha].
# (§3) The observed values (E^A) from the experiments, given suitable low dosages, show an effect of the combinations exceeding the expected values according to Colby (E^C) (Δ).
# (§4) Seeds of mono- and dicotyledonous weeds were placed in sandy loam in pots, covered with soil and grown in a greenhouse under good growth conditions (temperature, air humidity, water supply). Two to three weeks after sowing, the test plants were treated at the two- to four-leaf stage with the compositions of the invention. The compositions of the invention, formulated as spray powders or as emulsion concentrates, were sprayed onto the green parts of the plant in various dosages with an application rate equivalent to […] of water. After the test plants had been kept in the greenhouse under optimum growth conditions for 3 weeks, the activity of the preparations was rated visually in comparison to untreated controls.
# (§5) 100% efficacy means complete control of the particular weed tested.
# (§6) 0% efficacy means zero control of the particular weed tested.
# (§7) Expected values according to Colby are reported under E.
# (§8) The exceedance of the expected value E is given as Δ (=synergistic effect).
# (§9) The rating period is reported in days after application (DAT).
# Centaurea cyanus (CENCY) [1] = experiment: Post-emergence action against weeds, greenhouse pot test, visual rating: Centaurea cyanus; details: 240 h, read-out: Herbicidal effect [%] on CENCY 10 DAT
# Kochia scoparia (KCHSC) = experiment: Post-emergence action against weeds, greenhouse pot test, visual rating: Kochia scoparia; details: for pest or weed control at 0.4 g/ha / pest or weed control at […]: Bassia scoparia, post-emergence, 504 h, read-out: Herbicidal effect [%] on KCHSC 21 DAT
# [2] = test system: Pharbitis purpurea (PHBPU); experiment: Post-emergence action against weeds, greenhouse pot test, visual rating: Pharbitis purpurea; details: 0.4 g a.i./ha
# Bidens pilosa (BIDPI) = experiment: Post-emergence action against weeds, greenhouse pot test, visual rating: Bidens pilosa
# [3] = test system: Brachiaria platyfylla (BRAPP); experiment: Post-emergence action against weeds, greenhouse pot test, visual rating: Brachiaria platyfylla; details: for pest or weed control at […] / pest or weed control at 0.4 g/ha: post-emergence
# Description: as §1, §2, §3, §4, §5, §6, §7, §8, §9
# [4] = test system: Pharbitis purpurea (PHBPU); experiment: Post-emergence action against weeds, greenhouse pot test, visual rating: Pharbitis purpurea
# Description: as §1, §2, §3, §4, §5, §6, §7, §8, §9
# Centaurea cyanus (CENCY) [5] = experiment: Post-emergence action against weeds, greenhouse pot test, visual rating: Centaurea cyanus
# Description: as §1, §2, §3, §4, §5, §6, §7, §8, §9
# [6] = test system: Echinochloa crus-galli (ECHCG); experiment: Post-emergence action against weeds, greenhouse pot test, visual rating: Echinochloa crus-galli
# [7] = test system: Sorghum halepense (SORHA); experiment: Post-emergence action against weeds, greenhouse pot test, visual rating: Sorghum halepense
# Description: as §1, §2, §3, §4, §5, §6, §7, §8, §9
# [8] = 504 h, 0.4 g a.i./ha, read-out: Herbicidal effect [%] on ELEIN 21 DAT
compound,measurement,setting,value
"C=C[C@]1(C(=O)N[C@H]2CO[C@@H](C(=O)OC)C2)CC(c2cc(F)cc(F)c2)=NO1 (relative stereo) [Icafolin-methyl, methyl rel-(2R,4R)-4-[[(5S)-3-(3,5-difluorophenyl)-5-vinyl-4H-isoxazole-5-carbonyl]amino]tetrahydrofuran-2-carboxylate]",Herbicidal effect [%] on AVEFA 21 DAT,Avena fatua (AVEFA); 0.4 g a.i./ha,10%
same,Herbicidal effect [%] on LOLRI 10 DAT,Lolium rigidum (LOLRI); 0.4 g a.i./ha,10%
same,pest or weed control at 0.4 g/ha,Lolium rigidum (LOLRI); 0.4 g a.i./ha,0%
same,pest or weed control at 0.4 g/ha,Eleusine indica (ELEIN); [8],0%
same,pest or weed control at 0.4 g/ha,Centaurea cyanus (CENCY) [1]; 0.4 g a.i./ha,0%
same,pest or weed control at 0.4 g/ha,Kochia scoparia (KCHSC); 0.4 g a.i./ha,0%
same,Herbicidal effect [%] on PHBPU 10 DAT,[2],0%
"C#CCN1C(=O)C(F)(F)Oc2cc(F)c(-n3c(=O)n(C)c(=S)n(C)c3=O)cc21 [Trifludimoxazin, trifludimoxazin]",Herbicidal effect [%] on LOLRI 10 DAT,Lolium rigidum (LOLRI); 0.4 g a.i./ha,20%
same,Herbicidal effect [%] on ELEIN 10 DAT,Eleusine indica (ELEIN); 0.4 g a.i./ha,70%
same,Herbicidal effect [%] on ELEIN 21 DAT,Eleusine indica (ELEIN); 0.4 g a.i./ha,20%
same,Herbicidal effect [%] on BIDPI 10 DAT,Bidens pilosa (BIDPI); 0.4 g a.i./ha,60%
same,Herbicidal effect [%] on BIDPI 21 DAT,Bidens pilosa (BIDPI); 0.4 g a.i./ha,60%
same,Herbicidal effect [%] on BRAPP 10 DAT,[3]; 0.4 g a.i./ha,40%
same,Herbicidal effect [%] on BRAPP 21 DAT,[3]; 0.4 g a.i./ha,0%
same,Herbicidal effect [%] on PHBPU 21 DAT,[4]; 0.4 g a.i./ha,40%
same,Herbicidal effect [%] on KCHSC 10 DAT,Kochia scoparia (KCHSC); 0.4 g a.i./ha,85%
same,Herbicidal effect [%] on KCHSC 21 DAT,Kochia scoparia (KCHSC); 0.4 g a.i./ha,60%
same,Herbicidal effect [%] on PHBPU 10 DAT,[2],80%
same,Herbicidal effect [%] on CENCY 10 DAT,Centaurea cyanus (CENCY) [5]; 0.4 g a.i./ha,30%
"CCOC(=O)COc1ncccc1Oc1cc(-n2c(=O)cc(C(C)(F)F)n(C)c2=O)c(F)cc1Cl [Compound A1, ethyl [(3-{2-chloro-5-[4-(1,1-difluoroethyl)-3-methyl-2,6-dioxo-3,6-dihydropyrimidin-1(2H)-yl]-4-fluorophenoxy}pyridin-2-yl)oxy]acetate]",Herbicidal effect [%] on ECHCG 10 DAT,[6]; 0.15 g a.i./ha,10%
same,Herbicidal effect [%] on ECHCG 21 DAT,[6]; 0.15 g a.i./ha,10%
same,Herbicidal effect [%] on ECHCG 10 DAT,[6]; 0.45 g a.i./ha,25%
same,Herbicidal effect [%] on ECHCG 21 DAT,[6]; 0.45 g a.i./ha,20%
same,Herbicidal effect [%] on AVEFA 21 DAT,Avena fatua (AVEFA); 0.15 g a.i./ha,10%
same,Herbicidal effect [%] on AVEFA 21 DAT,Avena fatua (AVEFA); 0.45 g a.i./ha,20%
same,pest or weed control at […],Avena fatua (AVEFA); 0.15 g a.i./ha,5%
same,pest or weed control at […],Avena fatua (AVEFA); 0.45 g a.i./ha,20%
same,Herbicidal effect [%] on LOLRI 10 DAT,Lolium rigidum (LOLRI); 0.15 g a.i./ha,10%
same,Herbicidal effect [%] on LOLRI 10 DAT,Lolium rigidum (LOLRI); 0.45 g a.i./ha,15%
same,pest or weed control at […],Lolium rigidum (LOLRI); 0.15 g a.i./ha,5%
same,pest or weed control at […],Lolium rigidum (LOLRI); 0.45 g a.i./ha,5%
same,Herbicidal effect [%] on SORHA 10 DAT,[7]; 0.15 g a.i./ha,47.5%
same,Herbicidal effect [%] on SORHA 21 DAT,[7]; 0.15 g a.i./ha,49%
same,Herbicidal effect [%] on SORHA 10 DAT,[7]; 0.45 g a.i./ha,45%
same,Herbicidal effect [%] on SORHA 21 DAT,[7]; 0.45 g a.i./ha,40%
same,pest or weed control at […],"Eleusine indica (ELEIN); 240 h, 0.15 g a.i./ha, read-out: Herbicidal effect [%] on ELEIN 10 DAT",10%
same,pest or weed control at […],"Eleusine indica (ELEIN); 240 h, 0.45 g a.i./ha, read-out: Herbicidal effect [%] on ELEIN 10 DAT",35%
same,pest or weed control at […],"Eleusine indica (ELEIN); 504 h, 0.15 g a.i./ha, read-out: Herbicidal effect [%] on ELEIN 21 DAT",5%
same,pest or weed control at […],"Eleusine indica (ELEIN); 504 h, 0.45 g a.i./ha, read-out: Herbicidal effect [%] on ELEIN 21 DAT",5%
same,Herbicidal effect [%] on BIDPI 10 DAT,Bidens pilosa (BIDPI); 0.15 g a.i./ha,20%
same,Herbicidal effect [%] on BIDPI 21 DAT,Bidens pilosa (BIDPI); 0.15 g a.i./ha,10%
same,Herbicidal effect [%] on BIDPI 10 DAT,Bidens pilosa (BIDPI); 0.45 g a.i./ha,57.5%
same,Herbicidal effect [%] on BIDPI 21 DAT,Bidens pilosa (BIDPI); 0.45 g a.i./ha,30%
same,pest or weed control at […],"[3]; 240 h, 0.15 g a.i./ha, read-out: Herbicidal effect [%] on BRAPP 10 DAT",30%
same,pest or weed control at […],"[3]; 240 h, 0.45 g a.i./ha, read-out: Herbicidal effect [%] on BRAPP 10 DAT",45%
same,pest or weed control at […],"[3]; 504 h, 0.15 g a.i./ha, read-out: Herbicidal effect [%] on BRAPP 21 DAT",0%
same,pest or weed control at […],"[3]; 504 h, 0.45 g a.i./ha, read-out: Herbicidal effect [%] on BRAPP 21 DAT",0%
same,Herbicidal effect [%] on PHBPU 10 DAT,[4]; 0.15 g a.i./ha,20%
same,Herbicidal effect [%] on PHBPU 21 DAT,[4]; 0.15 g a.i./ha,20%
same,Herbicidal effect [%] on PHBPU 10 DAT,[4]; 0.45 g a.i./ha,77.5%
same,Herbicidal effect [%] on PHBPU 21 DAT,[4]; 0.45 g a.i./ha,50%
same,pest or weed control at […],Centaurea cyanus (CENCY) [1]; 0.15 g a.i./ha,15%
same,pest or weed control at […],Centaurea cyanus (CENCY) [1]; 0.45 g a.i./ha,40%
same,Herbicidal effect [%] on KCHSC 10 DAT,Kochia scoparia (KCHSC); 0.15 g a.i./ha,5%
same,Herbicidal effect [%] on KCHSC 10 DAT,Kochia scoparia (KCHSC); 0.45 g a.i./ha,25%
same,pest or weed control at […],Kochia scoparia (KCHSC); 0.15 g a.i./ha,0%
same,pest or weed control at […],Kochia scoparia (KCHSC); 0.45 g a.i./ha,5%
same,Herbicidal effect [%] on CENCY 21 DAT,Centaurea cyanus (CENCY) [5]; 0.15 g a.i./ha,15%
same,Herbicidal effect [%] on CENCY 21 DAT,Centaurea cyanus (CENCY) [5]; 0.45 g a.i./ha,20%
"C#CCN1C(=O)COc2cc(F)c(N3C(=O)C4=C(CCCC4)C3=O)cc21 [Flumioxazin, flumioxazin]",pest or weed control at 0.4 g/ha,Lolium rigidum (LOLRI); 0.4 g a.i./ha,0%
same,pest or weed control at 0.4 g/ha,"Eleusine indica (ELEIN); 240 h, 0.4 g a.i./ha, read-out: Herbicidal effect [%] on ELEIN 10 DAT",30%
same,pest or weed control at 0.4 g/ha,Eleusine indica (ELEIN); [8],0%
same,pest or weed control at 0.4 g/ha,"[3]; 240 h, 0.4 g a.i./ha, read-out: Herbicidal effect [%] on BRAPP 10 DAT",30%
same,pest or weed control at 0.4 g/ha,"[3]; 504 h, 0.4 g a.i./ha, read-out: Herbicidal effect [%] on BRAPP 21 DAT",10%
same,Herbicidal effect [%] on PHBPU 21 DAT,[4]; 0.4 g a.i./ha,30%
same,Herbicidal effect [%] on KCHSC 10 DAT,Kochia scoparia (KCHSC); 0.4 g a.i./ha,30%
same,pest or weed control at 0.4 g/ha,Kochia scoparia (KCHSC); 0.4 g a.i./ha,10%
same,Herbicidal effect [%] on PHBPU 10 DAT,[2],50%
